# Test results published in the supplement of paper PMC9663587.
# What was measured:
# Rucaparib = compound: CNCc1ccc(-c2[nH]c3cc(F)cc4c3c2CCNC4=O)cc1 [Rucaparib]
# Dasatinib = compound: Cc1nc(Nc2ncc(C(=O)Nc3c(C)cccc3Cl)s2)cc(N2CCN(CCO)CC2)n1 [Dasatinib]
# [1] = compound: CC(=O)c1c(C)c2cnc(Nc3ccc(N4CCNCC4)cn3)nc2n(C2CCCC2)c1=O
# Vorinostat = compound: O=C(CCCCCCC(=O)Nc1ccccc1)NO [Vorinostat]
# Taselisib/GDC0032 = compound: Cc1nc(-c2cn3c(n2)-c2ccc(-c4cnn(C(C)(C)C(N)=O)c4)cc2OCC3)n(C(C)C)n1 [Taselisib/GDC0032]
# AZD2014 = compound: CNC(=O)c1cccc(-c2ccc3c(N4CCOC[C@@H]4C)nc(N4CCOC[C@@H]4C)nc3n2)c1 [AZD2014]
# Volasertib/BI6727 = compound: CC[C@@H]1C(=O)N(C)c2cnc(Nc3ccc(C(=O)N[C@H]4CC[C@H](N5CCN(CC6CC6)CC5)CC4)cc3OC)nc2N1C(C)C [Volasertib/BI6727]
# THZ531 [2] = compound: T1, CN(C)C/C=C/C(=O)Nc1ccc(C(=O)N2CCC[C@@H](Nc3ncc(Cl)c(-c4c[nH]c5ccccc45)n3)C2)cc1 [THZ531]
# Neratinib/HKI272 [3] = compound: T2, CCOc1cc2ncc(C#N)c(Nc3ccc(OCc4ccccn4)c(Cl)c3)c2cc1NC(=O)/C=C/CN(C)C [Neratinib/HKI272]
# BSJ-01-175 = compound: CN(C)C/C=C/C(=O)Nc1ccc(O[C@@H]2CCC[C@@H](Nc3ncc(Cl)c(-c4c[nH]c5ccccc45)n3)C2)cc1 [BSJ-01-175]
# BSJ-03-123 [4] = compound: T3, CC(=O)c1c(C)c2cnc(Nc3ccc(N4CCN(CCOCCOCCOCCNC(=O)COc5cccc6c5C(=O)N(C5CCC(=O)NC5=O)C6=O)CC4)cn3)nc2n(C2CCCC2)c1=O [BSJ-03-123]
# Doxorubicin = compound: COc1cccc2c1C(=O)c1c(O)c3c(c(O)c1C2=O)C[C@@](O)(C(=O)CO)C[C@@H]3O[C@H]1C[C@H](N)[C@H](O)[C@H](C)O1 [Doxorubicin]
# [5] = compound: CC(=O)Nc1cccc(-n2c(=O)n(C3CC3)c(=O)c3c(Nc4ccc(I)cc4F)n(C)c(=O)c(C)c32)c1
# INK128/MLN0128 = compound: CC(C)n1nc(-c2ccc3oc(N)nc3c2)c2c(N)ncnc21 [INK128/MLN0128]
# Ceritinib/LDK378 = compound: Cc1cc(Nc2ncc(Cl)c(Nc3ccccc3S(=O)(=O)C(C)C)n2)c(OC(C)C)cc1C1CCNCC1 [Ceritinib/LDK378]
# YKL-5-124 = compound: C=CC(=O)Nc1ccc(C(=O)Nc2[nH]nc3c2CN(C(=O)N[C@H](CN(C)C)c2ccccc2)C3(C)C)cc1 [YKL-5-124]; experiment: increase in dead-cell fraction, 72 h; higher = more death;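 further: breast cancer cell lines in 384-well plates, stained with Hoechst plus LIVE/DEAD far red dye and imaged, cells above an LDR intensity threshold counted dead, Hoechst-negative corpses included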
# THZ1 = compound: CN(C)C/C=C/C(=O)Nc1ccc(C(=O)Nc2cccc(Nc3ncc(Cl)c(-c4c[nH]c5ccccc45)n3)c2)cc1 [THZ1]; experiment: as above
# THZ531 [6] = compound: T1, THZ531; experiment: as above
# Neratinib/HKI272 [7] = compound: T2, Neratinib/HKI272; experiment: as above
# BSJ-03-123 [8] = compound: T3, BSJ-03-123; experiment: as above
# [9] = compound: CCc1cnn2c(NCc3ccc[n+]([O-])c3)cc(N3CCCC[C@H]3CCO)nc12; experiment: as above
# 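Wherever GR50, 72 h is given: breast cancer and non-malignant breast epithelial cell lines, Deep Dye Drop or Dye Drop imaging, nine half-log doses, GR normalized to time-zero plates and DMSO-only controls.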
cell line,measurement,setting,value
ZR7530,"GR50, 72 h",Rucaparib,> 10 µM
same,"GR50, 72 h",Dasatinib,0.372 µM
same,"GR50, 72 h",[1],0.0889 µM
same,"GR50, 72 h",Vorinostat,0.844 µM
same,"GR50, 72 h",Taselisib/GDC0032,0.0102 µM
same,"GR50, 72 h",AZD2014,0.00146 µM
same,"GR50, 72 h",Volasertib/BI6727,0.00621 µM
same,"GR50, 72 h",THZ531 [2],0.0583 µM
same,"GR50, 72 h",Neratinib/HKI272 [3],0.000681 µM
same,"GR50, 72 h",BSJ-01-175,0.0237 µM
same,"GR50, 72 h",BSJ-03-123 [4],0.58 µM
same,"GR50, 72 h",Doxorubicin,0.0148 µM
same,"GR50, 72 h",[5],0.0361 µM
same,"GR50, 72 h",INK128/MLN0128,0.0153 µM
same,"GR50, 72 h",Ceritinib/LDK378,1.75 µM
same,increase in dead-cell fraction,YKL-5-124; 0.001 µM,0.039
same,increase in dead-cell fraction,YKL-5-124; 0.003162 µM,0.0535
same,increase in dead-cell fraction,YKL-5-124; 0.01 µM,0.0595
same,increase in dead-cell fraction,YKL-5-124; 0.03162 µM,0.0181
same,increase in dead-cell fraction,YKL-5-124; 0.1 µM,0.0418
same,increase in dead-cell fraction,YKL-5-124; 0.3162 µM,0.04
same,increase in dead-cell fraction,YKL-5-124; 1 µM,0.0587
same,increase in dead-cell fraction,YKL-5-124; 3.162 µM,0.0125
same,increase in dead-cell fraction,YKL-5-124; 10 µM,0.105
same,increase in dead-cell fraction,THZ1; 0.0001 µM,0.0034
same,increase in dead-cell fraction,THZ1; 0.0003162 µM,0.0045
same,increase in dead-cell fraction,THZ1; 0.001 µM,0
same,increase in dead-cell fraction,THZ1; 0.003162 µM,-0.0128
same,increase in dead-cell fraction,THZ1; 0.01 µM,0.0019
same,increase in dead-cell fraction,THZ1; 0.03162 µM,0.0253
same,increase in dead-cell fraction,THZ1; 0.1 µM,0.0921
same,increase in dead-cell fraction,THZ1; 0.3162 µM,0.097
same,increase in dead-cell fraction,THZ1; 1 µM,0.229
same,increase in dead-cell fraction,THZ531 [6]; 0.0001 µM,0.0074
same,increase in dead-cell fraction,THZ531 [6]; 0.0003162 µM,0.0167
same,increase in dead-cell fraction,THZ531 [6]; 0.001 µM,0.0003
same,increase in dead-cell fraction,THZ531 [6]; 0.003162 µM,0.0105
same,increase in dead-cell fraction,THZ531 [6]; 0.01 µM,-0.0154
same,increase in dead-cell fraction,THZ531 [6]; 0.03162 µM,-0.0168
same,increase in dead-cell fraction,THZ531 [6]; 0.1 µM,0.129
same,increase in dead-cell fraction,THZ531 [6]; 0.3162 µM,0.234
same,increase in dead-cell fraction,THZ531 [6]; 1 µM,0.0722
same,increase in dead-cell fraction,Neratinib/HKI272 [7]; 0.0003162 µM,0.0037
same,increase in dead-cell fraction,Neratinib/HKI272 [7]; 0.001 µM,-0.0057
same,increase in dead-cell fraction,Neratinib/HKI272 [7]; 0.003162 µM,-0.0122
same,increase in dead-cell fraction,Neratinib/HKI272 [7]; 0.01 µM,-0.0066
same,increase in dead-cell fraction,Neratinib/HKI272 [7]; 0.03162 µM,0.0011
same,increase in dead-cell fraction,Neratinib/HKI272 [7]; 0.1 µM,0.0186
same,increase in dead-cell fraction,Neratinib/HKI272 [7]; 0.3162 µM,0.0145
same,increase in dead-cell fraction,Neratinib/HKI272 [7]; 1 µM,0.025
same,increase in dead-cell fraction,Neratinib/HKI272 [7]; 3.162 µM,0.0495
same,increase in dead-cell fraction,BSJ-03-123 [8]; 0.001 µM,0.0025
same,increase in dead-cell fraction,BSJ-03-123 [8]; 0.003162 µM,0.0062
same,increase in dead-cell fraction,BSJ-03-123 [8]; 0.01 µM,0.0113
same,increase in dead-cell fraction,BSJ-03-123 [8]; 0.03162 µM,0.0285
same,increase in dead-cell fraction,BSJ-03-123 [8]; 0.1 µM,0.002
same,increase in dead-cell fraction,BSJ-03-123 [8]; 0.3162 µM,0.0395
same,increase in dead-cell fraction,BSJ-03-123 [8]; 1 µM,0.0336
same,increase in dead-cell fraction,BSJ-03-123 [8]; 3.162 µM,0.0895
same,increase in dead-cell fraction,BSJ-03-123 [8]; 10 µM,0.039
same,increase in dead-cell fraction,[9]; 0.0001 µM,-0.0019
same,increase in dead-cell fraction,[9]; 0.0003162 µM,0.0016
same,increase in dead-cell fraction,[9]; 0.001 µM,-0.02
same,increase in dead-cell fraction,[9]; 0.003162 µM,0.0075
same,increase in dead-cell fraction,[9]; 0.01 µM,-0.0026
same,increase in dead-cell fraction,[9]; 0.03162 µM,0.0388
same,increase in dead-cell fraction,[9]; 0.1 µM,0.103
same,increase in dead-cell fraction,[9]; 0.3162 µM,0.138
same,increase in dead-cell fraction,[9]; 1 µM,0.131
HCC1500,"GR50, 72 h",Dasatinib,0.00348 µM
same,"GR50, 72 h",[1],> 3.16 µM
same,"GR50, 72 h",Vorinostat,0.96 µM
same,"GR50, 72 h",Taselisib/GDC0032,1.88 µM
same,"GR50, 72 h",Volasertib/BI6727,0.0116 µM
same,"GR50, 72 h",Neratinib/HKI272 [3],0.785 µM
same,"GR50, 72 h",Doxorubicin,0.0163 µM
same,"GR50, 72 h",[5],0.142 µM
same,"GR50, 72 h",INK128/MLN0128,0.000784 µM
same,"GR50, 72 h",Ceritinib/LDK378,1.41 µM
same,increase in dead-cell fraction,Neratinib/HKI272 [7]; 0.0003162 µM,0.0116
same,increase in dead-cell fraction,Neratinib/HKI272 [7]; 0.001 µM,-0.0067
same,increase in dead-cell fraction,Neratinib/HKI272 [7]; 0.003162 µM,0.017
same,increase in dead-cell fraction,Neratinib/HKI272 [7]; 0.01 µM,-0.0012
same,increase in dead-cell fraction,Neratinib/HKI272 [7]; 0.03162 µM,0.0316
same,increase in dead-cell fraction,Neratinib/HKI272 [7]; 0.1 µM,0.0224
same,increase in dead-cell fraction,Neratinib/HKI272 [7]; 0.3162 µM,0.0504
same,increase in dead-cell fraction,Neratinib/HKI272 [7]; 1 µM,0.0834
same,increase in dead-cell fraction,Neratinib/HKI272 [7]; 3.162 µM,0.331
same,increase in dead-cell fraction,[9]; 0.0001 µM,0.0119
same,increase in dead-cell fraction,[9]; 0.0003162 µM,-0.0049
same,increase in dead-cell fraction,[9]; 0.001 µM,0.0055
same,increase in dead-cell fraction,[9]; 0.003162 µM,0.0001
same,increase in dead-cell fraction,[9]; 0.01 µM,0.0467
same,increase in dead-cell fraction,[9]; 0.03162 µM,0.285
same,increase in dead-cell fraction,[9]; 0.1 µM,0.499
same,increase in dead-cell fraction,[9]; 0.3162 µM,0.456
same,increase in dead-cell fraction,[9]; 1 µM,0.476
